Key:
KIT(V559D, T670I) = KIT(V559D, T670I) (Homo sapiens, UniProt P10721, T670I/V559D); assay: KINOMEscan; details: read-out: Percent Control
Procedure: (§4) The kinase engagement assay (KINOMEscan®) was performed by DiscoverX assessing binding abilities toward a set of kinases.

PRKD2 = PRKD2 (Homo sapiens, UniProt Q9BZL6); assay: KINOMEscan; details: read-out: Percent Control
Procedure: as §4

PKNB(M. tuberculosis) = target: T1, PKNB(M. tuberculosis) (Mycobacterium tuberculosis, UniProt P9WI81); assay: KINOMEscan; type: binding; details: read-out: Percent Control
T1 construct: purchased DiscoverX

HIPK2 = HIPK2 (Homo sapiens, UniProt Q9H2X6); assay: KINOMEscan; details: read-out: Percent Control
Procedure: as §4

MAP3K1 = MAP3K1 (Homo sapiens, UniProt Q13233); assay: KINOMEscan; details: read-out: Percent Control
Procedure: as §4

NDR2 = NDR2 (Homo sapiens, UniProt Q9Y2H1); assay: KINOMEscan; details: read-out: Percent Control
Procedure: as §4

ICK = ICK (Homo sapiens, UniProt Q9UPZ9); assay: KINOMEscan; details: read-out: Percent Control
Procedure: as §4

RNF166 = target: T2, RNF166 (Homo sapiens, UniProt Q96A37+Q96SW2); assay: Global multiplexed mass spectrometry proteomics in MOLT4 cells; type: cell-based; details: 1 μM, 5 hours
T2 construct: endogenous in cells; host or cells: MOLT4
Procedure: (§1) MOLT4 cells were treated with DMSO in biological triplicate and 1 μM BJG-05-039 for 5 hours and harvested by centrifugation. Cell lysis was performed by the addition of Urea buffer (8 M Urea, 50 mM NaCl, 50 mM 4-(2-hydroxyethyl)-1-piperazineethanesulfonic acid (EPPS) pH 8.5, Protease and Phosphatase inhibitors) followed by manual homogenization by 20 passes through a 21-gauge (1.25 in. long) needle. Lysate was clarified by centrifugation at 4° C. and protein quantified using bradford (Bio-Rad) assay. 100 μg of protein for each sample was reduced, alkylated and precipitated using methanol/chloroform as described (Donovan, et al. (2018) Elife 7: e38430). The resulting precipitated protein was resuspended in 4 M Urea, 50 mM HEPES pH 7.4, buffer for solubilization, followed by dilution to 1 M urea with the addition of 200 mM EPPS, pH 8. Proteins were digested for 12 hours at room temperature with LysC (1:50 ratio), followed by dilution to 0.5 M urea and a second digestion step was performed by addition of trypsin (1:50 ratio) for 6 hours at 37° C. Anhydrous ACN was added to each peptide sample to a final concentration of 30%, followed by addition of Tandem mass tag (TMT) reagents at a labelling ratio of 1:4 peptide:TMT label. TMT labelling occurred over a 1.5 hour incubation at room temperature followed by quenching with the addition of hydroxylamine to a final concentration of 0.3%. Each of the samples were combined using adjusted volumes and dried down in a speed vacuum followed by desalting with C18 SPE (Sep-Pak, Waters). […]
(§2) Quantification was performed using a MS3-based TMT method as described (Donovan et al. (2020) Cell 183(6):1714-1731). […]
(§3) Proteome Discoverer 2.4 (Thermo Fisher Scientific) was used for .RAW file processing and controlling peptide and protein level false discovery rates, assembling proteins from peptides, and protein quantification from peptides. […]

Aiolos (IKZF3) = target: T3, Aiolos (IKZF3) (Homo sapiens, UniProt Q96SW2+Q9UKT9); assay: as above; type: cell-based; details: 1 μM, 5 hours
T3 construct: endogenous in cells; host or cells: MOLT4
Procedure: as §1, §2, §3

Ikaros (IKZF1) = target: T4, Ikaros (IKZF1) (Homo sapiens, UniProt Q13422+Q96SW2); assay: as above; type: cell-based; details: 1 μM, 5 hours
T4 construct: endogenous in cells; host or cells: MOLT4
Procedure: as §1, §2, §3

PRKCH = PRKCH (Homo sapiens, UniProt P24723); assay: KINOMEscan; details: read-out: Percent Control
Procedure: as §4

MEK2 = MEK2 (Homo sapiens, UniProt P36507); assay: KINOMEscan; details: read-out: Percent Control
Procedure: as §4

CDC2L1 = CDC2L1 (Homo sapiens, UniProt P21127); assay: KINOMEscan; details: read-out: Percent Control
Procedure: as §4

PIK3C2B = PIK3C2B (Homo sapiens, UniProt O00750); assay: KINOMEscan; details: read-out: Percent Control
Procedure: as §4

ERK5 = ERK5 (Homo sapiens, UniProt Q13164); assay: KINOMEscan; details: read-out: Percent Control
Procedure: as §4

PIK3CA(H1047Y) = PIK3CA(H1047Y) (Homo sapiens, UniProt P42336, H1047Y); assay: KINOMEscan; details: read-out: Percent Control
Procedure: as §4

PIK3CG = PIK3CG (Homo sapiens, UniProt P48736); assay: KINOMEscan; details: read-out: Percent Control
Procedure: as §4

T4 sequence (Q13422 whole entry): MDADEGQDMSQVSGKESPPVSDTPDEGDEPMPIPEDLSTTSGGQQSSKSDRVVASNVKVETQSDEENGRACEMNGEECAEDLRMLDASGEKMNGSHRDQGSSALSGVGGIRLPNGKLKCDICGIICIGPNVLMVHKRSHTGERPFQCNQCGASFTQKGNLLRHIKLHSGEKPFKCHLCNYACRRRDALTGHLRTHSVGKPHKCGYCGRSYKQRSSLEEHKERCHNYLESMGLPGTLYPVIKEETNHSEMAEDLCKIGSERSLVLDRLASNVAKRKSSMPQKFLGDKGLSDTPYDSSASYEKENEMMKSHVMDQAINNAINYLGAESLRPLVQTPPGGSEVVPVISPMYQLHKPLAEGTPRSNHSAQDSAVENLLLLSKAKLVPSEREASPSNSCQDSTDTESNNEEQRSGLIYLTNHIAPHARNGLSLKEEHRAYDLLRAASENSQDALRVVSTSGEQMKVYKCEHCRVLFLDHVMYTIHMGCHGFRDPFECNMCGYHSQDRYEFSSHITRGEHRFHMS
T4 sequence (Q96SW2 whole entry): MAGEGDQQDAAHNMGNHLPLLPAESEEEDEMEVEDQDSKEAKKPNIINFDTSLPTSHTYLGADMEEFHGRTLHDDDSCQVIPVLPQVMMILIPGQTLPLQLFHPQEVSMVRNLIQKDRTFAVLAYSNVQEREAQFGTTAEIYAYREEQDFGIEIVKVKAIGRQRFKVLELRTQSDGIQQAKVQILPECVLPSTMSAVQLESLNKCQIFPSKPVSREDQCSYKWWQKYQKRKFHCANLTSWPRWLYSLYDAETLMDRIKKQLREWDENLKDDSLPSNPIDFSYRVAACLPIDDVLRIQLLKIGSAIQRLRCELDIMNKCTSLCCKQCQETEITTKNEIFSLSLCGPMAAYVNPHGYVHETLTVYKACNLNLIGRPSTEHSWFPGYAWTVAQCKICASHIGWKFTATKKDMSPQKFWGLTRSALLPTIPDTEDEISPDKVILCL
T4 sequence (Q16531 whole entry partner): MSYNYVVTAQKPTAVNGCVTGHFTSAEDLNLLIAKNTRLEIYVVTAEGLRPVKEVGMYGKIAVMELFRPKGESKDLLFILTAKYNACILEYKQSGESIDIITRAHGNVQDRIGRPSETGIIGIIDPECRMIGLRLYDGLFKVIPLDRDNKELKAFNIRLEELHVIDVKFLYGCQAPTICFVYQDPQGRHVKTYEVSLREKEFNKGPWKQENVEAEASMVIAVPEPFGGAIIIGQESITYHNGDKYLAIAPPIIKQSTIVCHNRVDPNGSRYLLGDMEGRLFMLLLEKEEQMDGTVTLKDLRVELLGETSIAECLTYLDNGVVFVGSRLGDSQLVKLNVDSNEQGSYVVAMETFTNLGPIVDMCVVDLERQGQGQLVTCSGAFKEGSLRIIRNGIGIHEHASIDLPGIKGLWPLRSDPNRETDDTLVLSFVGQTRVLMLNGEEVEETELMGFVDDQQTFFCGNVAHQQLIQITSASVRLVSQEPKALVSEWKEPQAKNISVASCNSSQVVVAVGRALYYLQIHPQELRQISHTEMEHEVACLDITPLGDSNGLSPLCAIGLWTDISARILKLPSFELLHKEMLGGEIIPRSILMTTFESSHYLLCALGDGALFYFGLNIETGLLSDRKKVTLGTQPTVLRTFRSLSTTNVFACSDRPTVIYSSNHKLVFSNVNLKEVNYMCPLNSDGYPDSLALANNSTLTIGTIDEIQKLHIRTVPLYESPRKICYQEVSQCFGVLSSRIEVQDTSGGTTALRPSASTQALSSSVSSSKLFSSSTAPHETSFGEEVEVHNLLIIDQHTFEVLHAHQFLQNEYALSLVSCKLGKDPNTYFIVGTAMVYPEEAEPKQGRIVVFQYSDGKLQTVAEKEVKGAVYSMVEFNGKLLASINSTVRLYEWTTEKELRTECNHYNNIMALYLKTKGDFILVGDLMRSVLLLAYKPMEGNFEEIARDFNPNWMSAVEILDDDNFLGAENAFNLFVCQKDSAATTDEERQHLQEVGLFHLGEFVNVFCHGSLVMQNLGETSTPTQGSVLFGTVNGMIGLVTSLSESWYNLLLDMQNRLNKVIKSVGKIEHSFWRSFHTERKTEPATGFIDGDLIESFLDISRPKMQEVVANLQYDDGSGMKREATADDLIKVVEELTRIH
Chain of PRKD2 (Q9BZL6 whole entry): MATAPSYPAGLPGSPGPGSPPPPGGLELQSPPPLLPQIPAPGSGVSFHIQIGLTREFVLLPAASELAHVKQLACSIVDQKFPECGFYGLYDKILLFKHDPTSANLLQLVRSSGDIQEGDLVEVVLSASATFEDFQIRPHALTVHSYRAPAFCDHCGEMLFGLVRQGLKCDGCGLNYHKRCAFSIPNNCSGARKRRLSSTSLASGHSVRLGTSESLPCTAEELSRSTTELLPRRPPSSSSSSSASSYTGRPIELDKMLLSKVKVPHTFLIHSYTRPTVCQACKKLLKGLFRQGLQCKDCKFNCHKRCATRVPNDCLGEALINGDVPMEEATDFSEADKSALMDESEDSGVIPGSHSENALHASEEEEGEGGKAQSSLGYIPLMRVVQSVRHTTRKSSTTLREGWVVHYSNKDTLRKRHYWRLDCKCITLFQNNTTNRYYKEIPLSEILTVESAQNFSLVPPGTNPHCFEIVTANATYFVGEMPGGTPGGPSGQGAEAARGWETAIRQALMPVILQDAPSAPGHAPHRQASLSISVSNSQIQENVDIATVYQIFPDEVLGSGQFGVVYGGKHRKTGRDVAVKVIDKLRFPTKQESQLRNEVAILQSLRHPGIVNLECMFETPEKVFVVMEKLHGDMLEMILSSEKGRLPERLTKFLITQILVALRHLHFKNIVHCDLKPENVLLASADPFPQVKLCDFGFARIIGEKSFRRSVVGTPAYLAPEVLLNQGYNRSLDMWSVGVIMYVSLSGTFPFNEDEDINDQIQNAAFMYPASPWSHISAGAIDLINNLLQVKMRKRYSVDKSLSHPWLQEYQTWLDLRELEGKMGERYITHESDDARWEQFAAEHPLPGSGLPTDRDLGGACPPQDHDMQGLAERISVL
Chain of PIK3C2B (O00750 whole entry): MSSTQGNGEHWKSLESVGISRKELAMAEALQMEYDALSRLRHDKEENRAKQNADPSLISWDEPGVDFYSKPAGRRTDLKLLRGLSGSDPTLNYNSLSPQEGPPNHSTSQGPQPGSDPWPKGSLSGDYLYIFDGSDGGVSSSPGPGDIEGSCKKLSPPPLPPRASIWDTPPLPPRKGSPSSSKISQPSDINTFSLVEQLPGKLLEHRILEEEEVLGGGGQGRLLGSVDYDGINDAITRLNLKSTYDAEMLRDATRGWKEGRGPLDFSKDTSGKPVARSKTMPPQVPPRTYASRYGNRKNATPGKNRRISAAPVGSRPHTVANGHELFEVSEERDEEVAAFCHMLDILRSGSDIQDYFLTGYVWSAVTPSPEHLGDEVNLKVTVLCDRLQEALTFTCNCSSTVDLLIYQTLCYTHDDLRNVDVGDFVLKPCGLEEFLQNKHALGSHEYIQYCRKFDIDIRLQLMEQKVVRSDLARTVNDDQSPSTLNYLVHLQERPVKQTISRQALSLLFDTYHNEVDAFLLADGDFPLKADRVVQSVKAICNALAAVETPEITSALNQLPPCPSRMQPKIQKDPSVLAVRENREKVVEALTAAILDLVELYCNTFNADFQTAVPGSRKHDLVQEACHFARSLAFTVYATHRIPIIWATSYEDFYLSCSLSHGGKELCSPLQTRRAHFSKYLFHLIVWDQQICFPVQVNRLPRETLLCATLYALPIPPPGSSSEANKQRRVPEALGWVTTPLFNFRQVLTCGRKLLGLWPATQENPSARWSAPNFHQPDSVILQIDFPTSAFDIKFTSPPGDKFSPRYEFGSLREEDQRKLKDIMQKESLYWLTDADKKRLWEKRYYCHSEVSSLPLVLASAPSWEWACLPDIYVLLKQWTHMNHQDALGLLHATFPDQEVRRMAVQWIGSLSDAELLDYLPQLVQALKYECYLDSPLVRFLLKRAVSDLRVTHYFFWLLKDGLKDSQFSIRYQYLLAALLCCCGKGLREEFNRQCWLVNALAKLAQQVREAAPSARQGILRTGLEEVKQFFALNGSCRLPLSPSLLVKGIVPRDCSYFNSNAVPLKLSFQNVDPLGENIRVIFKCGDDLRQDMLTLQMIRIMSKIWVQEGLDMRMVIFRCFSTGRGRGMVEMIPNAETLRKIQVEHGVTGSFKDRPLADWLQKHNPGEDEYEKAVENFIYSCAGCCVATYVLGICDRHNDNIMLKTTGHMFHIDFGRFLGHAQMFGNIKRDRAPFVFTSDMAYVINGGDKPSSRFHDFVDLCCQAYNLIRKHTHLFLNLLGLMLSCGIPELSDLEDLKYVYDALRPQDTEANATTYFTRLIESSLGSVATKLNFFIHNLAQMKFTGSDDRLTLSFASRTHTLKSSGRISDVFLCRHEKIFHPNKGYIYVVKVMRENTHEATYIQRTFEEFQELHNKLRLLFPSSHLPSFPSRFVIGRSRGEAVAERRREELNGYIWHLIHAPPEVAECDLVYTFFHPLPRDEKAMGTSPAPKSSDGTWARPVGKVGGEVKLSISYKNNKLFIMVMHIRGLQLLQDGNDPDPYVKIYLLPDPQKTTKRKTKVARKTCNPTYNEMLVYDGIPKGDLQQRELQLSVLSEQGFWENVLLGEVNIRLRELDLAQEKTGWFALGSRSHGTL
T2 sequence (Q96A37 whole entry): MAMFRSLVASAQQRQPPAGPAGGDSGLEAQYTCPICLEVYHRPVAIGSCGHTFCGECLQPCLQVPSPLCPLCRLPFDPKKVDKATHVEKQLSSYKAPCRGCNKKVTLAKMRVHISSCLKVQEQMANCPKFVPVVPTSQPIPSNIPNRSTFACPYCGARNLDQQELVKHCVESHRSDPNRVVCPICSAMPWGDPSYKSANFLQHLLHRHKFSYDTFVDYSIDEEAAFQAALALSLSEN
T2 sequence (Q96SW2 whole entry): as the sequence (Q96SW2 whole entry) above
T2 sequence (Q16531 whole entry partner): as the sequence (Q16531 whole entry partner) above

Molecule O=C1CCC(N2C(=O)c3cccc(NCCCCCCCCNC(=O)N4CC[C@H](NC5=Nc6cc(F)ccc6N(CC(F)F)c6ccc(Cl)cc65)C4)c3C2=O)C(=O)N1 (stereo partly drawn) [BJG-05-039, (3S)-3-((2-Chloro-5-(2,2-difluoroethyl)-8-fluoro-5H-dibenzo[b,e][1,4]diazepin-11-yl)amino)-N-(8-((2-(2,6-dioxopiperidin-3-yl)-1,3-dioxoisoindolin-4-yl)amino)octyl)pyrrolidine-1-carboxamide] has a remaining binding at 10 µM (KIT(V559D, T670I)) of 85%, a remaining binding at 10 µM (PRKD2) of 53% and a remaining binding at 10 µM (PKNB(M. tuberculosis)) of 72%. It also gave a remaining binding at 10 µM (HIPK2) of 100%, a remaining binding at 10 µM (MAP3K1) of 100% and a remaining binding at 10 µM (NDR2) of 45%. The remaining binding at 10 µM (ICK) was 99%, the “Change in protein abundance” value (RNF166) was “strongly downregulated” and the “Change in protein abundance” value (Aiolos (IKZF3)) was “strongly downregulated”. For the same molecule, the “Change in protein abundance” value (Ikaros (IKZF1)) was “strongly downregulated”, the remaining binding at 10 µM (PRKCH) was 94% and the remaining binding at 10 µM (MEK2) was 96%. For the same molecule, the remaining binding at 10 µM (CDC2L1) was 53%, the remaining binding at 10 µM (PIK3C2B) was 90% and the remaining binding at 10 µM (ERK5) was 57%. The remaining binding at 10 µM (PIK3CA(H1047Y)) was 94% and the remaining binding at 10 µM (PIK3CG) was 77%.
